In general, inhibition refers to the share of the control response that was lost under treatment. Lower therefore signals a weak effect. The IC50 is the concentration at which inhibition is half-maximal. Read a high IC50 as weaker potency in that assay.

For the first assay, the target named is T1, Human 5-lipoxygenase (Homo sapiens, UniProt P09917).
T1 construct: purchased Cayman 60402; host or cells: insect cells
T1 sequence (P09917 1-674): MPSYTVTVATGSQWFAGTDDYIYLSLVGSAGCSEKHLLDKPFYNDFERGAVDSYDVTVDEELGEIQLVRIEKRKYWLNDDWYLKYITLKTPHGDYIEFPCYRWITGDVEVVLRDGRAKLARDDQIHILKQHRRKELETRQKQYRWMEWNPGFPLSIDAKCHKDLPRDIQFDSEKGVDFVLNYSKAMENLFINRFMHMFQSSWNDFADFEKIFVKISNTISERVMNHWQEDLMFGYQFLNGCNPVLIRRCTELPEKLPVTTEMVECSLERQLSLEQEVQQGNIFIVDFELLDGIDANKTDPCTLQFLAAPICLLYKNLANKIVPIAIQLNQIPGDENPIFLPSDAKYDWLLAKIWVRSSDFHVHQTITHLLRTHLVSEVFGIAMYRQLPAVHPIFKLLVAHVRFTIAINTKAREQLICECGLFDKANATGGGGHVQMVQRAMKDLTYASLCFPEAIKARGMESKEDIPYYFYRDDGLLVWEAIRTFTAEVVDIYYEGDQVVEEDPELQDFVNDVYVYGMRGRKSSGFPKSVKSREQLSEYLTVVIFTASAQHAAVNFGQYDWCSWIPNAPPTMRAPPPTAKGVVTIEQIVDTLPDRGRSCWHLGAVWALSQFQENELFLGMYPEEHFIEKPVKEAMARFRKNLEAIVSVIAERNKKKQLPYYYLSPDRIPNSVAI
Put plainly: Activity of compounds against 5-LO enzyme (LTB4 measurement and/or fluorescence method). Conditions: 5-LO, single concentration of 10 uM in duplicate. In kind it is biochemical. The gist of the method:
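Two read-outs: LTB4 measured by EIA and/or LC/MS/MS with LTB4-d4 standard after 15 min RT compound preincubation with insect-cell 5-LO and a 5 min 37 °C reaction on 3 uM arachidonic acid (0.1 mM ATP, pH 7.4). The room-temperature fluorescence format used 20 uM H2DCFDA, 100 uM ATP, 3 uM arachidonic acid, 5 min; IC50 from 6/11-point curves.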
Regarding `CCc1nc2cc(Cl)ccn2c1C(=O)NCc1ccc(N2CC3CCCCC3C2)cc1` (stereo not drawn) [compound 216, N-(4-(1H-isoindol-2(3H,3aH,4H,5H,6H,7H,7aH)-yl)benzyl)-7-chloro-2-ethylimidazo[1,2-a]pyridine-3-carboxamide], the inhibition at 10 µM fell in the range of 40 to 69%. `CCc1nc2cc(OC)ccn2c1C(=O)NCc1ccc(N2CCN(c3ccc(F)cc3)CC2)cc1` [compound 264, 2-Ethyl-N-(4-(4-(4-fluorophenyl)piperazin-1-yl)benzyl)-7-methoxyimidazo[1,2-a]pyridine-3-carboxamide] gave an inhibition at 10 µM below 40%. `CCc1nc2ccc(Cl)cn2c1C(=O)NCc1ccc(OCC(C)C)cc1` [compound 66] returned an inhibition at 10 µM below 40%. Same read-out and setting: as for `CCc1nc2ccc(Cl)cn2c1C(=O)NCc1ccc(N2CCC(COC3CCCC3)CC2)cc1` [compound 285, 6-Chloro-N-(4-(4-(cyclopentyloxymethyl)piperidin-1-yl)benzyl)-2-ethylimidazo[1,2-a]pyridine-3-carboxamide], the figure is below 40%; as for `CCc1nc2cc(Cl)ccn2c1NC(=O)c1ccc(-c2ccccc2)cc1` [compound 115, N-(7-Chloro-2-ethylimidazo[1,2-a]pyridin-3-yl)biphenyl-4-carboxamide], 40 to 69%; as for `CCc1nc2ccc(Cl)cn2c1CNc1ccc(OC(F)(F)F)cc1` [compound 144, N-((6-Chloro-2-ethylimidazo[1,2-a]pyridin-3-yl)methyl)-4-(trifluoromethoxy)aniline], 40 to 69%.

As for `Cc1nc2cc(Cl)ccn2c1C(=O)NCc1ccccc1` [compound 16, N-Benzyl-7-chloro-2-methylimidazo[1,2-a]pyridine-3-carboxamide], the inhibition at 10 µM is below 40%. The same measure, in the same setting: as for `CCc1nc2ccc(Cl)cn2c1C(=O)NCc1ccc(C2CCN(C(=O)c3ccc(F)cc3)CC2)cc1` [compound 326, 6-chloro-2-ethyl-N-(4-(1-(4-fluorobenzoyl)piperidin-4-yl)benzyl)imidazo[1,2-a]pyridine-3-carboxamide], the figure is below 40%. `CCc1nc2ccc(Cl)cn2c1C(=O)NCc1ccc(-c2ccc(Cl)cc2C(F)(F)F)cc1` [compound 100, 6-Chloro-N-((4′-chloro-2′-(trifluoromethyl)biphenyl-4-yl)methyl)-2-ethylimidazo[1,2-a]pyridine-3-carboxamide] had an inhibition at 10 µM above 69%. On to `CCc1nc2ccc(Cl)cn2c1C(=O)NCc1ccc(-c2cccc(C#N)c2)cc1` [compound 99, 6-Chloro-N-((3′-cyanobiphenyl-4-yl)methyl)-2-ethylimidazo[1,2-a]pyridine-3-carboxamide], for which the inhibition at 10 µM was below 40%. Still for that read-out and setting: as for `CCc1nc2c(F)cccn2c1C(=O)NCc1ccc(OC(F)(F)F)cc1` [compound 282, 2-Ethyl-8-fluoro-N-(4-(trifluoromethoxy)benzyl)imidazo[1,2-a]pyridine-3-carboxamide], the figure is below 40%.

`CCc1nc2ccccn2c1CN1CCC(Cn2cc(C(O)(CC)C(F)(F)F)nn2)CC1` (stereo not drawn) [compound 351, 2-(1-((1-((2-ethylimidazo[1,2-a]pyridin-3-yl)methyl)piperidin-4-yl)methyl)-1H-1,2,3-triazol-4-yl)-1,1,1-trifluorobutan-2-ol] came in with an inhibition at 10 µM below 40%. Turning to `CCc1nc2ccc(C)cn2c1C(=O)NCc1ccc2ccn(C)c2c1` [compound 60, 2-Ethyl-6-methyl-N-((1-methyl-1H-indol-6-yl)methyl)imidazo[1,2-a]pyridine-3-carboxamide], the inhibition at 10 µM lay in the range of 40 to 69%. On the same count and under the same terms, the same measure for `CCc1nc2cc(Cl)ccn2c1C(=O)NCc1ccc(N2CCC(OCc3ccc(F)cc3)CC2)cc1` [compound 301, 7-Chloro-2-ethyl-N-(4-(4-(4-fluorobenzyloxy)piperidin-1-yl)benzyl)imidazo[1,2-a]pyridine-3-carboxamide]: 40 to 69%; for `CCc1nc2ccc([N+](=O)[O-])cn2c1C(=O)NCc1ccc(OC(F)(F)F)cc1` [compound 69, 2-Ethyl-6-nitro-N-(4-(trifluoromethoxy)benzyl)imidazo[1,2-a]pyridine-3-carboxamide]: 40 to 69%; for `O=C(NCc1ccccc1)c1c(C2CC2)nc2ccccn12` [compound 38, N-Benzyl-2-cyclopropylimidazo[1,2-a]pyridine-3-carboxamide]: below 40%. On the same count and under the same terms, the same measure for `CCc1nc2ccc(Cl)cn2c1C(=O)NCc1ccc(N2CCN(C)CC2)cc1` [compound 105, 6-Chloro-2-ethyl-N-(4-(4-methylpiperazin-1-yl)benzyl)imidazo[1,2-a]pyridine-3-carboxamide]: below 40%.

In turn, `CCc1nc2ccc(Cl)cn2c1C(=O)NCc1ccn(-c2ccc(C(F)(F)F)cc2)n1` [compound 151, 6-Chloro-2-ethyl-N-((1-(4-(trifluoromethyl)phenyl)-1H-pyrazol-3-yl)methyl)imidazo[1,2-a]pyridine-3-carboxamide] yielded an inhibition at 10 µM below 40%. For `CCCc1nc2ccccn2c1C(=O)NCc1ccccc1` [compound 37, N-Benzyl-2-propylimidazo[1,2-a]pyridine-3-carboxamide], the inhibition at 10 µM was below 40%. Molecule `Cc1nc2ccccn2c1NC(=O)Cc1ccccc1` [compound 41, N-(2-Methylimidazo[1,2-a]pyridin-3-yl)-2-phenylacetamide] returned an inhibition at 10 µM below 40%.

For the molecule `CCc1nc2cc(Cl)ccn2c1C(=O)NCc1ccc(N2CCOCC2)c(Cl)c1` [compound 303, 7-Chloro-N-(3-chloro-4-morpholinobenzyl)-2-ethylimidazo[1,2-a]pyridine-3-carboxamide], the inhibition at 10 µM was below 40%.

`CCc1nc2ccc(Cl)cn2c1C(=O)NCc1ccc(C(C)(C)C)cc1` [compound 63]: the inhibition at 10 µM is 40 to 69%. On to `CCc1nc2cc(Cl)ccn2c1C(=O)NCc1ccc(-c2ccccc2C)cc1` [compound 85, 7-Chloro-2-ethyl-N-((2′-methylbiphenyl-4-yl)methyl)imidazo[1,2-a]pyridine-3-carboxamide], for which the inhibition at 10 µM is above 69%. Same read-out and setting: the same measure for `CCc1nc2ccc(Cl)cn2c1C(=O)NCc1ccc(OC(F)(F)F)cc1` [compound 55]: 40 to 69%; for `CCc1nc2ccccn2c1C(=O)NCc1ccc(OCC(C)C)cc1` [compound 54, 2-Ethyl-N-(4-isobutoxybenzyl)imidazo[1,2-a]pyridine-3-carboxamide]: below 40%; for `CCc1nc2cc(Cl)ccn2c1C(=O)NCc1ccc(-c2ccccc2)cc1` [compound 91, N-(Biphenyl-4-ylmethyl)-7-chloro-2-ethylimidazo[1,2-a]pyridine-3-carboxamide]: 40 to 69%. Turning to `CCc1nc2ccc(Cl)cn2c1C(=O)NCc1ccc(N2CCC(Oc3ccc(Cl)cc3)CC2)cc1` [compound 166, 6-Chloro-N-(4-(4-(4-chlorophenoxy)piperidin-1-yl)benzyl)-2-ethylimidazo[1,2-a]pyridine-3-carboxamide], the inhibition at 10 µM lay in the range of 40 to 69%.

Molecule `Cc1nc2c(C)cccn2c1C(=O)NCc1ccccc1` [compound 31, N-Benzyl-2,8-dimethylimidazo[1,2-a]pyridine-3-carboxamide] showed an inhibition at 10 µM below 40%.

`CCc1nc2ccc(Cl)cn2c1CNCc1ccc(N(C)C)cc1` [compound 339, 4-((((6-chloro-2-ethylimidazo[1,2-a]pyridin-3-yl)methyl)amino)methyl)-N,N-dimethylaniline] showed an inhibition at 10 µM below 40%.

In the case of `CCc1nc2ccc(Cl)cn2c1C(=O)NCc1ccc(N2CCC(NC(=O)c3ccc(F)cc3)CC2)cc1` [compound 318, 6-chloro-2-ethyl-N-(4-(4-(4-fluorobenzamido)piperidin-1-yl)benzyl)imidazo[1,2-a]pyridine-3-carboxamide], the inhibition at 10 µM is below 40%. `CCc1nc2ccc(Cl)cn2c1C(=O)N1CCC(Cn2cc(C(O)(CC)C(F)(F)F)nn2)CC1` (stereo not drawn) [compound 350, (6-chloro-2-ethylimidazo[1,2-a]pyridin-3-yl)(4-((4-(1,1,1-trifluoro-2-hydroxybutan-2-yl)-1H-1,2,3-triazol-1-yl)methyl)piperidin-1-yl)methanone] showed an inhibition at 10 µM below 40%. `CCc1nc2ccc(Cl)cn2c1C(=O)NCc1ccc(-c2ccccc2C)cc1` [compound 75, 6-Chloro-2-ethyl-N-((2′-methylbiphenyl-4-yl)methyl)imidazo[1,2-a]pyridine-3-carboxamide] displayed an inhibition at 10 µM of 40 to 69%.

The same assay, now with this note: 6 or 11 point dose response in duplicate.
`CCc1nc2ccc(Cl)cn2c1C(=O)NCc1ccc(-c2ccc(Cl)cc2C(F)(F)F)cc1` [compound 100, 6-Chloro-N-((4′-chloro-2′-(trifluoromethyl)biphenyl-4-yl)methyl)-2-ethylimidazo[1,2-a]pyridine-3-carboxamide] gave a concentration for half-maximal inhibition (IC50) of 1 to 20 µM.

`CCc1nc2ccc(Cl)cn2c1C(=O)NCc1ccc(OC(F)(F)F)cc1` [compound 55]: the IC50 was in the range of 1 to 20 µM. Same read-out and setting: the same measure for `CCc1nc2ccc(Cl)cn2c1CN1CCN(c2ccc(F)cc2)CC1` [compound 397, 6-chloro-2-ethyl-3-((4-(4-fluorophenyl)piperazin-1-yl)methyl)imidazo[1,2-a]pyridine]: above 20 µM; for `CCc1nc2ccc(Cl)cn2c1C(=O)NCc1ccc(-c2ccccc2C)cc1` [compound 75, 6-Chloro-2-ethyl-N-((2′-methylbiphenyl-4-yl)methyl)imidazo[1,2-a]pyridine-3-carboxamide]: 1 to 20 µM.
